Read-outs that look alike come from different tables or passages of the source. Residues, ends and D or L forms follow the SMILES beside them.
Columns and labels:
SARS-CoV-2 [1] = assay: microbe, parasite or virus in culture; format: cell-based
TMPRSS2 [2] = molecular target: T1, TMPRSS2 (Homo sapiens, UniProt O15393); conditions: HeLa-ACE2 cells, 120 μM
Method: HeLa-ACE2 cells were transiently transfected with empty vector (V) or increasing cDNA ratios of V5-tagged WT spike protein to TMPRSS2 (spike-V5:TMPRSS2) as indicated and 24 h later incubated for an additional 24 h in serum-free media containing 120 μM Camostat (+) or control DMSO (−) (FIG. 12A). Immunoblot of the 24 h conditioned media (concentrated 10-fold) was first probed for S1 and S1′ using an antibody against S1-subunit (GTX135356), stripped and next probed for sACE2 (ab108252) and mature TMPRSS2m (14437-1-AP) (upper panel). Cell lysates were immunoblotted for spike protein (V5-mAb), ACE2 (ab108252) and β-Actin (lower panel). HeLa-ACE2 cells were transiently transfected for 48 h with empty vector (V), TMPRSS2, and V5-tagged spike protein (S) alone or in combination with TMPRSS2 (S+TMPRSS2) in a ratio of 1:0.7 (FIG. 12B). For each condition, 1 ml of 24h serum free conditioned media was immunoprecipitated with 2 μg goat polyclonal ACE2 antibody (AF933, R&D) and 60 μl TrueBlot anti-goat Ig IP beads (00-8844-25; Rockland) and analyzed by western blot first for S1 and S1′ (GTX135356) and next for sACE2 (rabbit MAB; ab108252) (upper right panels). For reference, 50% of the media before immunoprecipitation (concentrated 10-fold) (input) was similarly analyzed (upper left panels). Immunoblots of the cell lysates (spike protein: V5-mAb) are also shown (lower panels).
To confirm that S2a, and S2b are generated by TMPRSS2 activity in the ER, HeLa-ACE2 cells were incubated with 120 μM Camostat, known to inhibit TMPRSS2.

[3] = test system: endogenous furin-like enzymes; format: cell-based, Chinese hamster; conditions: BHK21 cells; Compound 192/219 at 0.3, 1 or 10 μM, RVKR at 50 μM; 24 h
[4] = test system: endogenous furin-like enzymes; format: cell-based, African green monkey; conditions: VeroE6 cells; Compound 192/219 at 0.3, 1 or 10 μM, RVKR at 50 μM; 24 h
[5] = test system: endogenous furin-like enzymes; format: cell-based, human; conditions: A549 cells; Compound 192/219 at 0.3, 1 or 10 μM, RVKR at 50 μM; 24 h
PACE4 (PCSK6) = molecular target: T2, PACE4 (PCSK6) (Homo sapiens, UniProt P29122); assay: Biochemical PC-inhibition assay, substrate FAM-[…]-TAMRA
T2 construct: PACE4 (PCSK6; 150-693-Tev-Flag-6His); Tev site (C); Flag (C); 6His (C); made in house; host or cells: BacMam transduced CHO cells
Method: (§1) Biochemical assay: The proprotein convertases furin (108-574-Tev-Flag-6His), PC5A (PCSK5; […]-Tev-Flag-6His), PACE4 (PCSK6; 150-693-Tev-Flag-6His), and PC7 (PCSK7; 142-634-Tev-Flag-6His) enzymes were purified from BacMam transduced CHO cells. […] 0.05 μl of each concentration was transferred to the corresponding well of an assay plate, and then 5 μl of enzyme (furin, PCSK5, PCSK6, and PCSK7) in assay buffer (100 mM HEPES pH 7.5, 1 mM CaCl2) and 0.005% Triton X-100) was added using a Multidrop Combi (Thermo) to the compound plates to give a final protein concentration of 0.02, 0.5, 2.5, and 1.0 nM respectively. The plates were mixed by inversion, and following a 30 min preincubation of enzyme with compound at room temperature (˜22° C.), the substrate FAM-[…] -TAMRA (AnaSpec #808143, 5 μl of a 1, 0.25, 0.20, and 0.5 μM solution in assay buffer for furin, PCSK5, PCSK6, and PCSK7 respectively) was added using a Multidrop Combi to the entire assay plate. The plates were centrifuged at 500×g for 1 minute and incubated at room temperature for two hours. Enzyme inhibition was then quantified using an Envision instrument (PerkinElmer). Data were normalized to maximal inhibition determined by 1 μM Decanoyl-Arg-Val-Lys-Arg-Chloromethylketone (Calbiochem #344930). Golgi imaging assay: This assay uses an image-based platform to evaluate the intracellular activity of furin inhibitors. Reactions were performed in black 384-well, tissue culture-treated, clear bottom plates (Greiner). Compounds under analysis were dissolved in DMSO (1.0 mM) and serially diluted 1 to 3 with DMSO through eleven dilutions. This creates a final compound concentration range from 0.00017 to 10 μM, and 0.1 μL of each concentration was transferred to the corresponding well of the assay plate.

PC5A (PCSK5) = molecular target: T3, PC5A (PCSK5) (Homo sapiens, UniProt Q92824); assay: as above
T3 construct: fused on or other part: C-terminal Tev site, Flag tag and 6His tag
Method: as §1

PC7 (PCSK7) = molecular target: T4, PC7 (PCSK7) (Homo sapiens, UniProt Q16549); assay: as above
T4 construct: PC7 (PCSK7; 142-634-Tev-Flag-6His); Tev site (C); Flag (C); 6His (C); made in house; host or cells: BacMam transduced CHO cells
Method: as §1

[6] = test system: endogenous furin-like enzymes; format: cell-based; conditions: HeLa-ACE2 cells
[7] = test system: HeLa cells co-expressing the S-protein with ACE2; assay: Immunocytochemistry of HeLa cells co-expressing S-protein and ACE2 (syncytia, localization); format: cell-based; conditions: 1 μM
Method: Immunocytochemical analyses of HeLa cells co-expressing the S-protein or μS1/S2 with ACE2 in the absence or presence of 1 μM Compound 192 was also investigated under cell-permeabilization (P; V5 and ACE2 antibodies) and non-permeabilization (NP; S2 and ACE2 antibodies) conditions (FIGS. 14, 15). In the absence of Compound 192, the S-protein and ACE2 co-localized abundantly at the cell surface (FIG. 14-a). HeLa cells expressing both S-protein and ACE2 formed many syncytia, associated with reduced cell surface expression of the S-protein, and an even greater reduction of ACE2 (FIG. 14-b).
Cell culture and transfection were performed on glass coverslips. Cells were washed twice with PBS and fixed with fresh 4% paraformaldehyde for 10 min at room temperature. Following washes, cells were either non-permeabilized or permeabilized with 0.2% Triton X-100 in PBS containing 2% BSA for 5 min, washed, and then blocking was performed with PBS containing 2% BSA for 1 h. Cells were incubated with primary antibodies overnight at 4° C. using an antibody against V5 (mouse monoclonal R960-25; 1:1000; Invitrogen), Spike (mouse monoclonal GTX632604; 1:500; GeneTex) and ACE2 (goat polyclonal AF933; 1:500; RnDsystems). Following wash, corresponding species-specific Alexa-Fluor (488 or 555)-tagged antibodies (Molecular Probes) were incubated for 1 h at room temperature. […]

[8] = test system: SARS-CoV-2 Spike ACE2-dependent cell-to-cell fusion; assay: microbe, parasite or virus in culture; format: cell-based; conditions: Severe acute respiratory syndrome coronavirus 2; 300 nM
[9] = test system: HIV particles pseudotyped with SARS-CoV-2 S; format: cell-based
SARS-CoV-2 [10] = format: cell-based
furin [11] = molecular target: T5, furin (Homo sapiens, UniProt P09958); assay: biochemical
Target sequence in this assay (P09958 108-794): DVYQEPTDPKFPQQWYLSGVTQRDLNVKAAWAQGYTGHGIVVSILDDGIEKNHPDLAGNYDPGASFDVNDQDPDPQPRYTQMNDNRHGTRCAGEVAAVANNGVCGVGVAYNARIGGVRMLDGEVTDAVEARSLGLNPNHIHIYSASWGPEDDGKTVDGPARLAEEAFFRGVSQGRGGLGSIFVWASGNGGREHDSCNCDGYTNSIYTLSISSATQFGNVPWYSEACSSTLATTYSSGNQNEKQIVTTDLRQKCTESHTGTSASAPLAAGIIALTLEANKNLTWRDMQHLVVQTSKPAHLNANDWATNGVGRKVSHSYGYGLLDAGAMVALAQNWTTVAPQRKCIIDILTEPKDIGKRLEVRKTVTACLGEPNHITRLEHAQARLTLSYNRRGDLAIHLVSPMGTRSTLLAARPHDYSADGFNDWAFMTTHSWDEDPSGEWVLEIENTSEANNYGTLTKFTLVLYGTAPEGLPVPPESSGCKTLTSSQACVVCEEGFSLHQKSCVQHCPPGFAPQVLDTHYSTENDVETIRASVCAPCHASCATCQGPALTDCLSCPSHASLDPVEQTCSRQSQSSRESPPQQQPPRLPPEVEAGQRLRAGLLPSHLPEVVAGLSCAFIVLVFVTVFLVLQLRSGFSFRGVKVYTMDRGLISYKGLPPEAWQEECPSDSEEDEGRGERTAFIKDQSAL
Method: Furin and TRMPSS2 fluorogenic assays: Recombinant furin was purchased from BioLegend (#719406), TRMPSS2 from Cusabio and the DABCYLGlu-EDANS labelled peptides encompassing the different cleavage sites (Supplementary Table 1) were purchased from Genscript. Reactions were performed at room temperature in black 384-well polystyrene low volume plates (CELLSTAR-Greiner Bio-One #784476) at a final volume of 15 μL. […] Cleavage of the synthetic peptides was quantitated by determining the increase of EDANS (493 nM) fluorescence following release of the DABCYL quencher, which is excited at 335 nM using a Safire 2 Tecan fluorimeter. The fluorescence was followed during 90 min, and the enzymatic activity was deduced by measurement of the increase of fluorescence during the linear phase of the reaction. Each reaction was performed in triplicate and the standard deviation was calculated using Excel-ecart type function

TMPRSS2 [12] = molecular target: T1, TMPRSS2; format: cell-based; parameters: expressed in transfected cells; host or cells: HeLa; conditions: HeLa cells
furin [13] = molecular target: T5, furin; assay: Biochemical PC-inhibition assay, substrate FAM-[…]-TAMRA; parameters: furin (108-574-Tev-Flag-6His); Tev site (C); Flag (C); 6His (C); made in house; host or cells: BacMam transduced CHO cells
Target sequence in this assay (P09958 108-574): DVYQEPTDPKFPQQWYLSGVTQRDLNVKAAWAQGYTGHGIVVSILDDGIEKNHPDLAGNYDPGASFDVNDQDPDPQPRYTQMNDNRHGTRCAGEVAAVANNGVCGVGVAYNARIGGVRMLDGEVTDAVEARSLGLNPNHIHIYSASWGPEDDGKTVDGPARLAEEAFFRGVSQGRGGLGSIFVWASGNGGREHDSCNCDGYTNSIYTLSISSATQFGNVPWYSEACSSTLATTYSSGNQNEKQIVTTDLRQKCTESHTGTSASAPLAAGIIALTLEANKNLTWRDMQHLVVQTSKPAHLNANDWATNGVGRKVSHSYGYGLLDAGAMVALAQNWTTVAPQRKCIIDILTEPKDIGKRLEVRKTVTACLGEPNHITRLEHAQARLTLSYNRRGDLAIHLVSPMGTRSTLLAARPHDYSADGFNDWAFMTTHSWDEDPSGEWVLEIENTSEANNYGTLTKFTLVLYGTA
Method: Biochemical assay: The proprotein convertases furin (108-574-Tev-Flag-6His), PC5A (PCSK5; 115-63-Tev-Flag-6His), PACE4 (PCSK6; 150-693-Tev-Flag-6His), and PC7 (PCSK7; 142-634-Tev-Flag-6His) enzymes were purified from BacMam transduced CHO cells. Reactions were performed in black 384-well polystyrene low volume plates (Greiner) at a final volume of 10 μL. […] The plates were centrifuged at 500×g for 1 minute and incubated at room temperature for two hours. Enzyme inhibition was then quantified using an Envision instrument (PerkinElmer). Data were normalized to maximal inhibition determined by 1 μM Decanoyl-Arg-Val-Lys-Arg-Chloromethylketone (Calbiochem #344930).

endogenous furin = molecular target: T6, endogenous furin (Homo sapiens, UniProt P09958); assay: Cell-based Golgi imaging assay of U2OS cells (BMP10-mimic cleavage)
T6 construct: the endogenous protease cleaves GFP from its N-acetylgalactosaminyltransferase-2 Golgi tether; endogenous in cells; host or cells: U2OS
Method: Biochemical assay: The proprotein convertases furin (108-574-Tev-Flag-6His), PC5A (PCSK5; […]-Tev-Flag-6His), PACE4 (PCSK6; 150-693-Tev-Flag-6His), and PC7 (PCSK7; 142-634-Tev-Flag-6His) enzymes were purified from BacMam transduced CHO cells. […] 0.05 μl of each concentration was transferred to the corresponding well of an assay plate, and then 5 μl of enzyme (furin, PCSK5, PCSK6, and PCSK7) in assay buffer (100 mM HEPES pH 7.5, 1 mM CaCl2) and 0.005% Triton X-100) was added using a Multidrop Combi (Thermo) to the compound plates to give a final protein concentration of 0.02, 0.5, 2.5, and 1.0 nM respectively. […] Enzyme inhibition was then quantified using an Envision instrument (PerkinElmer). Data were normalized to maximal inhibition determined by 1 μM Decanoyl-Arg-Val-Lys-Arg-Chloromethylketone (Calbiochem #344930). […]
Cellular assay: Analyses were initiated by the addition of U2OS cells simultaneously transduced with a BacMam-delivered construct containing a Golgi-targeting sequence followed by a 12-amino acid furin/PCSK cleavage site from Bone Morphogenic Protein 10 (BMP10) and then GFP at the C terminus. […] In the absence of a furin/PCSK inhibitor, the endogenous protease cleaves GFP from its N-acetylgalactosaminyltransferase-2 Golgi tether, releasing GFP into the Golgi lumen where fluorescence is diluted below the threshold of assay sensitivity. […]

T2 sequence (P29122 150-693): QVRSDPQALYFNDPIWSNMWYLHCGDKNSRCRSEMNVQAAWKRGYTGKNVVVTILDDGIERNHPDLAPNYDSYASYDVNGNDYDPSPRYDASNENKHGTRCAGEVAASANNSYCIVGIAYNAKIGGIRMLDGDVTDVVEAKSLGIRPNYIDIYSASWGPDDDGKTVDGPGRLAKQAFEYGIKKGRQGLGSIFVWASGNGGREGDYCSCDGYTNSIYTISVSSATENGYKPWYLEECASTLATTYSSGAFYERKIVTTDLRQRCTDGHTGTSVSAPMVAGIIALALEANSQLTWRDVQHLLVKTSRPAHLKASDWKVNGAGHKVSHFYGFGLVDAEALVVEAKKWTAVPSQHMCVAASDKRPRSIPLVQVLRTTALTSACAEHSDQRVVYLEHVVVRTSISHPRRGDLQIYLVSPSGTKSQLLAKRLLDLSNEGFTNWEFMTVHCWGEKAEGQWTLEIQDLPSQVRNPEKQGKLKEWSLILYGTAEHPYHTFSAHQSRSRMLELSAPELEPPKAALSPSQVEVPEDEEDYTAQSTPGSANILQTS
T3 sequence (Q92824 115-601): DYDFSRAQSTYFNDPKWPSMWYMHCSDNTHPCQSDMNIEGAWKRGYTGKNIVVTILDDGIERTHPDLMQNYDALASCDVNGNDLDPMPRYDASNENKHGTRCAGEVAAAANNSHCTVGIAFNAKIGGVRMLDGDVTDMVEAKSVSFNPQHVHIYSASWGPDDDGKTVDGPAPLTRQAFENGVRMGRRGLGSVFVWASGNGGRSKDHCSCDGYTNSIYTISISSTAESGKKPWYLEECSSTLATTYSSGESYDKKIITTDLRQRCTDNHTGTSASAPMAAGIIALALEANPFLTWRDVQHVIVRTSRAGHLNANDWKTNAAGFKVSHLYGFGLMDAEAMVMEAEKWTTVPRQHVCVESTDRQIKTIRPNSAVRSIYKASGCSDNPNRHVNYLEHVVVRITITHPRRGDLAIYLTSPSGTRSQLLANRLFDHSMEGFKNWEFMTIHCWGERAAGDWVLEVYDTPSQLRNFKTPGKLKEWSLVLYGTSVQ
T4 sequence (Q16549 142-634): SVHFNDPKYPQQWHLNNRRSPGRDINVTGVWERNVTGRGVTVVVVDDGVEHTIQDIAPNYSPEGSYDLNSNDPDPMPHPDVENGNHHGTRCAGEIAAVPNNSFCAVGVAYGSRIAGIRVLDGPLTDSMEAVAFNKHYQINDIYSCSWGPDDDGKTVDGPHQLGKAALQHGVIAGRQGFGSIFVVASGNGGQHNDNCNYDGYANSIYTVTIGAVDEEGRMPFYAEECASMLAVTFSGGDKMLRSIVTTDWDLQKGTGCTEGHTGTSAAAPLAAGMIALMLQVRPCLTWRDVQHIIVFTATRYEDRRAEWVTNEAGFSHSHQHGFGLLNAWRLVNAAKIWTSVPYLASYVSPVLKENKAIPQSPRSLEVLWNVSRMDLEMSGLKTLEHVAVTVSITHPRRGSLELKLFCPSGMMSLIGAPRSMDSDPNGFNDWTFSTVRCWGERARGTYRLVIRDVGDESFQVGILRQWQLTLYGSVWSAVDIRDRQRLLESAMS
T1 sequence (O15393 whole entry): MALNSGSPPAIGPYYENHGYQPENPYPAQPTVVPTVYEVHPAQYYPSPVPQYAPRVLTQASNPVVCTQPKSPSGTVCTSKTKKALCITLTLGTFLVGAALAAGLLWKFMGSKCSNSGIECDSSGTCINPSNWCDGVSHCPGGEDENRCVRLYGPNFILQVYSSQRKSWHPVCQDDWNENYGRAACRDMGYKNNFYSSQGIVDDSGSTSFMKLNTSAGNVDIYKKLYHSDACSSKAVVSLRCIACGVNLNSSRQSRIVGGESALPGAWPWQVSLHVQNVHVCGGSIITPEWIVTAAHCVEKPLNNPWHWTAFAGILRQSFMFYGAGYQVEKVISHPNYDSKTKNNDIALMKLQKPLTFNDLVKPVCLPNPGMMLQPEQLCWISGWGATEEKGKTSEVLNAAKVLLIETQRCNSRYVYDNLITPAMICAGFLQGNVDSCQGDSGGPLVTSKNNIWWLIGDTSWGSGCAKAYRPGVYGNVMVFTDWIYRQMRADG
T6 sequence (P09958 108-794): as the sequence (P09958 108-794) above

Compound	Viral replication, inhibitors individually (SARS-CoV-2 [1])	Inhibition of processing of pro-(S) protein to active (S)-protein [3]	Inhibition of processing of pro-(S) protein to active (S)-protein [4]	Inhibition of processing of pro-(S) protein to active (S)-protein [5]	IC50 (PACE4 (PCSK6)) [nM]	IC50 (PC5A (PCSK5)) [nM]	IC50 (PC7 (PCSK7)) [nM]	S1/S2 and S2′ processing by endogenous furin-like enzymes [6]	inhibition at 0.3 µM [8] [%]	Viral entry in Calu-3 of pseudovirions packaged in presence of inhibitor [9]	Antiviral effects and selectivity index relative to Compound 93 (SARS-CoV-2 [1])	SARS-CoV-2 infection in Calu-3 cells (virus titers) (SARS-CoV-2 [1])	Viral titers at 12, 24 and 48h post-infection (SARS-CoV-2 [1])	Virus production in infected Vero E6 cells (SARS-CoV-2 [10])	Generation of S2a and S2b by TMPRSS2 (TMPRSS2 [12])	IC50 (furin [13]) [nM]	also measured
CN(C)C(=O)COC(=O)Cc1ccc(OC(=O)c2ccc(NC(=N)N)cc2)cc1 [Camostat]	meaningfully reduce viral replication	–	–	–	–	–	–	–	–	–	–	–	–	–	–	–	Generation of S1′ (TMPRSS2 [2]): in large part; Generation of sACE2 (TMPRSS2 [2]): inhibited; Formation of S2a and S2b (TMPRSS2 [2]; increasing TMPRSS2): prevented
CC(=O)NCC1CCN(Cc2cc(Oc3cnc(N4CCN(CCC(C)C(=O)O)CC4)nc3)nc(-c3cc(Cl)cc(Cl)c3)c2)CC1 (stereo not shown) [Compound 192, 4-(4-(5-((4-((4-(acetamidomethyl)piperidin-1-yl)methyl)-6-(3,5-dichloro-phenyl)pyridin-2-yl)oxy)pyrimidin-2-yl)piperazin-1-yl)-2-methylbutanoic acid]	meaningfully reduce viral replication	Inhibition was observed	somewhat	less inhibition	~7	~7	~7	blocked	> 60	block viral entry	comparable	strongly reduce	significantly decreased	modestly reduce virus production	none of the compounds affected	~7	Inhibition of S1/S2 and S2′ processing ([6]; 300 nM): almost complete inhibition; Phenotype of S-expressing HeLa cells (syncytia, S and ACE2 localization) [7]: phenocopy those expressing μS1/S2; IC50 (furin [11]): 4 ± 0.7 nM
CC(=O)NCC1CCN(Cc2cc(Oc3ccc(N4CCN(CCC(=O)O)CC4)nc3)nc(-c3cc(Cl)cc(Cl)c3)c2)CC1 [Compound 219, 3-(4-(5-((4-((4-(acetamidomethyl)piperidin-1-yl)methyl)-6-(3,5-dichlorophenyl)pyridin-2-yl)oxy)pyridin-2-yl)piperazin-1-yl)propanoicacid]	–	Inhibition was observed	somewhat	less inhibition	~7	~7	~7	blocked	> 60	block viral entry	comparable	strongly reduce	significantly decreased	modestly reduce virus production	none of the compounds affected	~7	–
CCCCCCCCCC(=O)N[C@@H](CCCNC(=N)N)C(=O)N[C@H](C(=O)N[C@@H](CCCCN)C(=O)N[C@@H](CCCNC(=N)N)C(=O)CCl)C(C)C [RVKR-cmk, Decanoyl-Arg-Val-Lys-Arg-CMK, reference compound] (HELM PEPTIDE1{[CCCCCCCCCC(=O)[*:2]].R.V.K.R.[ClC[*:1]]}$$$$V2.0)	–	–	–	–	~9	~9	~9	–	–	–	–	–	–	–	–	~9	IC50 (endogenous furin): 5 nM

Source: patent US20230149401A1 (priority 2020, published 2023)
